Each molecule was assayed against ER (Homo sapiens (Human), UniProt P03372) (assay: Western blot analysis (Compounds B1-B278)). Conditions: ER degradation by traditional Western blot; DC50 classes.
Format: cell-based
Method in brief: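 Relative target-protein levels come from densitometry of immunoblots, normalized to GAPDH. Lysates from treated cells were prepared in RIPA buffer (pH 7.6) containing protease inhibitors, and equal protein amounts, checked by BCA, were separated on 10% gels and blotted onto PVDF.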

Chain of ER (P03372 whole entry): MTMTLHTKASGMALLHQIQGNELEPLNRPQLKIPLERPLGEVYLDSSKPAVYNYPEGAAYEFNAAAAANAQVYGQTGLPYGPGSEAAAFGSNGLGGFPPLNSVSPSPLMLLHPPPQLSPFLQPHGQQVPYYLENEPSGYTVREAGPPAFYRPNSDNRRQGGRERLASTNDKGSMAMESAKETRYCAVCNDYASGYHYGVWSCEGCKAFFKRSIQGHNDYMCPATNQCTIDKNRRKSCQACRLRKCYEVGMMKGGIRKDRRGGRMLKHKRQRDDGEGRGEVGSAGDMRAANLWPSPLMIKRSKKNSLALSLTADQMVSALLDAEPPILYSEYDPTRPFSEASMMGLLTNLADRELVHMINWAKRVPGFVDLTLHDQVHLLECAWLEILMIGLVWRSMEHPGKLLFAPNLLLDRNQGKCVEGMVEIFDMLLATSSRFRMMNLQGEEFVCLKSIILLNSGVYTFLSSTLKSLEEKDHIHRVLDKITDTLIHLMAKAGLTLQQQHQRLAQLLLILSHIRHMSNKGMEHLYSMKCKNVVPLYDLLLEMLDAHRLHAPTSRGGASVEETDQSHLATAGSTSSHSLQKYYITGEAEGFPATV

Traditional Western Degradation Potency, B (“B”: 10-100 nM):
C[C@@H]1Cc2c([nH]c3ccccc23)[C@@H](c2c(F)cc(N3CCC(CN4CCC5(CC4)CC(N4Cc6cc7c(cc6C4)C(=O)N(C4CCC(=O)NC4=O)C7=O)C5)CC3)cc2F)N1CC(F)F (stereo partly drawn) [Compound B69, 6-(7-((1-(4-((1R,3R)-2-(2,2-difluoroethyl)-3-methyl-2,3,4,9-tetrahydro-1H-pyrido[3,4-b]indol-1-yl)-3,5-difluorophenyl)piperidin-4-yl)methyl)-7-azaspiro[3.5]nonan-2-yl)-2-(2,6-dioxopiperidin-3-yl)-6,7-dihydropyrrolo[3,4-f]isoindole-1,3(2H,5H)-dione]
C[C@@H]1Cc2c([nH]c3ccccc23)[C@@H](c2c(F)cc(N3CCC(CN4CCC5(CCC(N6Cc7cc8c(cc7C6)C(=O)N(C6CCC(=O)NC6=O)C8=O)C5)CC4)CC3)cc2F)N1CC(F)F (stereo partly drawn) [Compound B70, 6-(8-((1-(4-((1R,3R)-2-(2,2-difluoroethyl)-3-methyl-2,3,4,9-tetrahydro-1H-pyrido[3,4-b]indol-1-yl)-3,5-difluorophenyl)piperidin-4-yl)methyl)-8-azaspiro[4.5]decan-2-yl)-2-(2,6-dioxopiperidin-3-yl)-6,7-dihydropyrrolo[3,4-f]isoindole-1,3(2H,5H)-dione]
C[C@@H]1Cc2c([nH]c3ccccc23)[C@@H](c2c(F)cc(N3CC(CC(=O)N4CC(N5Cc6cc7c(cc6C5)C(=O)N(C5CCC(=O)NC5=O)C7)C4)C3)cc2F)N1CC(F)F (stereo partly drawn) [Compound B71, 3-(6-(1-(2-(1-(4-((1R,3R)-2-(2,2-difluoroethyl)-3-methyl-2,3,4,9-tetrahydro-1H-pyrido[3,4-b]indol-1-yl)-3,5-difluorophenyl)azetidin-3-yl)acetyl)azetidin-3-yl)-1-oxo-3,5,6,7-tetrahydropyrrolo[3,4-f]isoindol-2(1H)-yl)piperidine-2,6-dione]
C[C@@H]1Cc2c([nH]c3ccccc23)[C@@H](c2c(F)cc(N3CC(F)(C(=O)N4CCC(CN5Cc6cc7c(cc6C5)C(=O)N(C5CCC(=O)NC5=O)C7=O)CC4)C3)cc2F)N1CC(F)F (stereo partly drawn) [Compound B74, 6-((1-(1-(4-((1R,3R)-2-(2,2-difluoroethyl)-3-methyl-2,3,4,9-tetrahydro-1H-pyrido[3,4-b]indol-1-yl)-3,5-difluorophenyl)-3-fluoroazetidine-3-carbonyl)piperidin-4-yl)methyl)-2-(2,6-dioxopiperidin-3-yl)-6,7-dihydropyrrolo[3,4-f]isoindole-1,3(2H,5H)-dione]
C[C@@H]1Cc2c([nH]c3ccccc23)[C@@H](c2c(F)cc(C3CCC(C(=O)N4CCC(F)(CN5Cc6cc7c(cc6C5)C(=O)N(C5CCC(=O)NC5=O)C7=O)CC4)CC3)cc2F)N1CC(F)F (stereo partly drawn) [Compound B78, 6-((1-(4-(4-((1R,3R)-2-(2,2-difluoroethyl)-3-methyl-2,3,4,9-tetrahydro-1H-pyrido[3,4-b]indol-1-yl)-3,5-difluorophenyl)cyclohexane-1-carbonyl)-4-fluoropiperidin-4-yl)methyl)-2-(2,6-dioxopiperidin-3-yl)-6,7-dihydropyrrolo[3,4-f]isoindole-1,3(2H,5H)-dione]

Traditional Western Degradation Potency, A (“A”: <10 nM):
C[C@@H]1Cc2c([nH]c3ccccc23)[C@@H](c2c(F)cc(N3CCC(CN4CCCC(N5Cc6cc7c(cc6C5)C(=O)N(C5CCC(=O)NC5=O)C7=O)CC4)CC3)cc2F)N1CC(F)F (stereo partly drawn) [Compound B67, 6-(1-((1-(4-((1R,3R)-2-(2,2-difluoroethyl)-3-methyl-2,3,4,9-tetrahydro-1H-pyrido[3,4-b]indol-1-yl)-3,5-difluorophenyl)piperidin-4-yl)methyl)azepan-4-yl)-2-(2,6-dioxopiperidin-3-yl)-6,7-dihydropyrrolo[3,4-f]isoindole-1,3(2H,5H)-dione]
C[C@@H]1Cc2c([nH]c3ccccc23)[C@@H](c2c(F)cc(N3CCC(CN4CC5(CC(N6Cc7cc8c(cc7C6)C(=O)N(C6CCC(=O)NC6=O)C8=O)C5)C4)CC3)cc2F)N1CC(F)F (stereo partly drawn) [Compound B68, 6-(2-((1-(4-((1R,3R)-2-(2,2-difluoroethyl)-3-methyl-2,3,4,9-tetrahydro-1H-pyrido[3,4-b]indol-1-yl)-3,5-difluorophenyl)piperidin-4-yl)methyl)-2-azaspiro[3.3]heptan-6-yl)-2-(2,6-dioxopiperidin-3-yl)-6,7-dihydropyrrolo[3,4-f]isoindole-1,3(2H,5H)-dione]
C[C@@H]1Cc2c([nH]c3ccccc23)[C@@H](c2c(F)cc(N3CCC4(CCN(C(=O)CN5Cc6cc7c(cc6C5)C(=O)N(C5CCC(=O)NC5=O)C7=O)CC4)C3)cc2F)N1CC(F)F (stereo partly drawn) [Compound B72, 6-(2-(2-(4-((1R,3R)-2-(2,2-difluoroethyl)-3-methyl-2,3,4,9-tetrahydro-1H-pyrido[3,4-b]indol-1-yl)-3,5-difluorophenyl)-2,8-diazaspiro[4.5]decan-8-yl)-2-oxoethyl)-2-(2,6-dioxopiperidin-3-yl)-6,7-dihydropyrrolo[3,4-f]isoindole-1,3(2H,5H)-dione]
C[C@@H]1Cc2c([nH]c3ccccc23)[C@@H](c2c(F)cc(N3CC(C(=O)N4CCC(CN5Cc6cc7c(cc6C5)C(=O)N(C5CCC(=O)NC5=O)C7=O)CC4)C3)cc2F)N1CC(F)F (stereo partly drawn) [Compound B76, 6-((1-(1-(4-((1R,3R)-2-(2,2-difluoroethyl)-3-methyl-2,3,4,9-tetrahydro-1H-pyrido[3,4-b]indol-1-yl)-3,5-difluorophenyl)azetidine-3-carbonyl)piperidin-4-yl)methyl)-2-(2,6-dioxopiperidin-3-yl)-6,7-dihydropyrrolo[3,4-f]isoindole-1,3(2H,5H)-dione]
C[C@@H]1Cc2c([nH]c3ccccc23)[C@@H](c2c(F)cc(C3CCC(C(=O)N4CCC(N5Cc6cc7c(cc6C5)C(=O)N(C5CCC(=O)NC5=O)C7=O)CC4)CC3)cc2F)N1CC(F)F (stereo partly drawn) [Compound B77, 6-(1-(4-(4-((1R,3R)-2-(2,2-difluoroethyl)-3-methyl-2,3,4,9-tetrahydro-1H-pyrido[3,4-b]indol-1-yl)-3,5-difluorophenyl)cyclohexane-1-carbonyl)piperidin-4-yl)-2-(2,6-dioxopiperidin-3-yl)-6,7-dihydropyrrolo[3,4-f]isoindole-1,3(2H,5H)-dione]
C[C@@H]1Cc2c([nH]c3ccccc23)[C@@H](c2c(F)cc(C3CCC(C(=O)N4CC(CN5Cc6cc7c(cc6C5)C(=O)N(C5CCC(=O)NC5=O)C7=O)C4)CC3)cc2F)N1CC(F)F (stereo partly drawn) [Compound B81, 6-((1-(4-(4-((1R,3R)-2-(2,2-difluoroethyl)-3-methyl-2,3,4,9-tetrahydro-1H-pyrido[3,4-b]indol-1-yl)-3,5-difluorophenyl)cyclohexane-1-carbonyl)azetidin-3-yl)methyl)-2-(2,6-dioxopiperidin-3-yl)-6,7-dihydropyrrolo[3,4-f]isoindole-1,3(2H,5H)-dione]

Traditional Western Degradation Potency, C (“C”: >100 nM):
C[C@@H]1Cc2c([nH]c3ccccc23)[C@@H](c2c(F)cc(N3CCC(CN4Cc5cc6c(cc5C4)C(=O)N(C4CCC(=O)NC4=O)C6)CC3)cc2F)N1CC(F)F (stereo partly drawn) [Compound B73, 3-(6-((1-(4-((1R,3R)-2-(2,2-difluoroethyl)-3-methyl-2,3,4,9-tetrahydro-1H-pyrido[3,4-b]indol-1-yl)-3,5-difluorophenyl)piperidin-4-yl)methyl)-1-oxo-3,5,6,7-tetrahydropyrrolo[3,4-f]isoindol-2(1H)-yl)piperidine-2,6-dione]
C[C@@H]1Cc2c([nH]c3ccccc23)[C@@H](c2c(F)cc(N3CC(F)(C(=O)N4CCC(F)(CN5Cc6cc7c(cc6C5)C(=O)N(C5CCC(=O)NC5=O)C7=O)CC4)C3)cc2F)N1CC(F)F (stereo partly drawn) [Compound B75, 6-((1-(1-(4-((1R,3R)-2-(2,2-difluoroethyl)-3-methyl-2,3,4,9-tetrahydro-1H-pyrido[3,4-b]indol-1-yl)-3,5-difluorophenyl)-3-fluoroazetidine-3-carbonyl)-4-fluoropiperidin-4-yl)methyl)-2-(2,6-dioxopiperidin-3-yl)-6,7-dihydropyrrolo[3,4-f]isoindole-1,3(2H,5H)-dione]
C[C@@H]1Cc2c([nH]c3ccccc23)[C@@H](c2c(F)cc(C3CCC(C(=O)N4CCC(CN5Cc6cc7c(cc6C5)C(=O)N(C5CCC(=O)NC5=O)C7=O)CC4)CC3)cc2F)N1CC(F)F (stereo partly drawn) [Compound B79, 6-((1-(4-(4-((1R,3R)-2-(2,2-difluoroethyl)-3-methyl-2,3,4,9-tetrahydro-1H-pyrido[3,4-b]indol-1-yl)-3,5-difluorophenyl)cyclohexane-1-carbonyl)piperidin-4-yl)methyl)-2-(2,6-dioxopiperidin-3-yl)-6,7-dihydropyrrolo[3,4-f]isoindole-1,3(2H,5H)-dione]
C[C@@H]1Cc2c([nH]c3ccccc23)[C@@H](c2c(F)cc(C3CCC(C(=O)N4CC(N5Cc6cc7c(cc6C5)C(=O)N(C5CCC(=O)NC5=O)C7=O)C4)CC3)cc2F)N1CC(F)F (stereo partly drawn) [Compound B80, 6-(1-(4-(4-((1R,3R)-2-(2,2-difluoroethyl)-3-methyl-2,3,4,9-tetrahydro-1H-pyrido[3,4-b]indol-1-yl)-3,5-difluorophenyl)cyclohexane-1-carbonyl)azetidin-3-yl)-2-(2,6-dioxopiperidin-3-yl)-6,7-dihydropyrrolo[3,4-f]isoindole-1,3(2H,5H)-dione]
C[C@@H]1Cc2c([nH]c3ccccc23)[C@@H](c2c(F)cc(C3CCC(CN4CCC(N5Cc6cc7c(cc6C5)C(=O)N(C5CCC(=O)NC5=O)C7=O)CC4)CC3)cc2F)N1CC(F)F (stereo partly drawn) [Compound B82, 6-(1-((4-(4-((1R,3R)-2-(2,2-difluoroethyl)-3-methyl-2,3,4,9-tetrahydro-1H-pyrido[3,4-b]indol-1-yl)-3,5-difluorophenyl)cyclohexyl)methyl)piperidin-4-yl)-2-(2,6-dioxopiperidin-3-yl)-6,7-dihydropyrrolo[3,4-f]isoindole-1,3(2H,5H)-dione]
